Data: the supplement of paper PMC10307832

What was measured:
Test in all cases: relative viability (nuclei count vs DMSO), 5 days (fraction); higher = more cells survive
Everolimus + Linsitinib = compound: CO[C@H]1C[C@@H]2CC[C@@H](C)[C@@](O)(O2)C(=O)C(=O)N2CCCC[C@H]2C(=O)O[C@H]([C@H](C)C[C@@H]2CC[C@@H](OCCO)[C@H](OC)C2)CC(=O)[C@H](C)/C=C(\C)[C@@H](O)[C@@H](OC)C(=O)[C@H](C)C[C@H](C)/C=C/C=C/C=C/1C [Everolimus] + C[C@]1(O)C[C@@H](c2nc(-c3ccc4ccc(-c5ccccc5)nc4c3)c3c(N)nccn32)C1 [Linsitinib] (partner 1 µM)
Outline: (§1)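 Cells from lung cancer lines were seeded into 1536-well plates and, one day later, dosed by pin tool. Treatments were either a single drug or a fixed dose of an anchor drug with five library-drug doses (not always all listed) in √10 steps. After 5 days, nuclei were stained in a one-step fixation (final 0.05% Triton X-100, 1% formaldehyde, 1 ug/ml Hoechst) and counted on 4× images, and relative viability is the treated-to-vehicle nuclei ratio, as the median of duplicate plates.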

Everolimus + Pemetrexed = compound: CO[C@H]1C[C@@H]2CC[C@@H](C)[C@@](O)(O2)C(=O)C(=O)N2CCCC[C@H]2C(=O)O[C@H]([C@H](C)C[C@@H]2CC[C@@H](OCCO)[C@H](OC)C2)CC(=O)[C@H](C)/C=C(\C)[C@@H](O)[C@@H](OC)C(=O)[C@H](C)C[C@H](C)/C=C/C=C/C=C/1C [Everolimus] + Nc1nc2[nH]cc(CCc3ccc(C(=O)N[C@@H](CCC(=O)O)C(=O)O)cc3)c2c(=O)[nH]1 [Pemetrexed] (partner 0.2 µM)
Outline: as §1

Everolimus + Vorinostat = compound: CO[C@H]1C[C@@H]2CC[C@@H](C)[C@@](O)(O2)C(=O)C(=O)N2CCCC[C@H]2C(=O)O[C@H]([C@H](C)C[C@@H]2CC[C@@H](OCCO)[C@H](OC)C2)CC(=O)[C@H](C)/C=C(\C)[C@@H](O)[C@@H](OC)C(=O)[C@H](C)C[C@H](C)/C=C/C=C/C=C/1C [Everolimus] + O=C(CCCCCCC(=O)Nc1ccccc1)NO [Vorinostat] (partner 1 µM)
Outline: as §1

Everolimus + Olaparib = compound: CO[C@H]1C[C@@H]2CC[C@@H](C)[C@@](O)(O2)C(=O)C(=O)N2CCCC[C@H]2C(=O)O[C@H]([C@H](C)C[C@@H]2CC[C@@H](OCCO)[C@H](OC)C2)CC(=O)[C@H](C)/C=C(\C)[C@@H](O)[C@@H](OC)C(=O)[C@H](C)C[C@H](C)/C=C/C=C/C=C/1C [Everolimus] + O=C(c1cc(Cc2n[nH]c(=O)c3ccccc23)ccc1F)N1CCN(C(=O)C2CC2)CC1 [Olaparib] (partner 8 µM)
Outline: as §1

Row | Cell Line | relative viability (Everolimus + Linsitinib; first compound 0.01 µM) | relative viability (Everolimus + Linsitinib; first compound 0.03162 µM) | relative viability (Everolimus + Linsitinib; first compound 0.1 µM) | relative viability (Everolimus + Linsitinib; first compound 0.3162 µM) | relative viability (Everolimus + Linsitinib; first compound 1 µM) | relative viability (Everolimus + Pemetrexed; first compound 0.01 µM) | relative viability (Everolimus + Pemetrexed; first compound 0.03162 µM) | relative viability (Everolimus + Pemetrexed; first compound 0.1 µM) | relative viability (Everolimus + Pemetrexed; first compound 0.3162 µM) | relative viability (Everolimus + Pemetrexed; first compound 1 µM) | relative viability (Everolimus + Vorinostat; first compound 0.01 µM) | relative viability (Everolimus + Vorinostat; first compound 0.03162 µM) | relative viability (Everolimus + Vorinostat; first compound 0.1 µM) | relative viability (Everolimus + Vorinostat; first compound 0.3162 µM) | relative viability (Everolimus + Vorinostat; first compound 1 µM) | relative viability (Everolimus + Olaparib; first compound 0.01 µM) | relative viability (Everolimus + Olaparib; first compound 0.03162 µM) | relative viability (Everolimus + Olaparib; first compound 0.1 µM) | relative viability (Everolimus + Olaparib; first compound 0.3162 µM) | relative viability (Everolimus + Olaparib; first compound 1 µM)
1 | NCI-H1944 | 0.84 | 0.824 | 0.684 | 0.754 | 0.715 | 0.497 | 0.545 | 0.393 | 0.489 | 0.404 | 0.373 | 0.376 | 0.315 | 0.44 | 0.336 | 0.389 | 0.329 | 0.325 | 0.35 | 0.351
2 | NCI-H1975 | 0.747 | 0.618 | 0.672 | 0.665 | 0.597 | 0.37 | 0.343 | 0.353 | 0.345 | 0.339 | 0.599 | 0.587 | 0.608 | 0.565 | 0.542 | 0.752 | 0.654 | 0.697 | 0.691 | 0.655
3 | NCI-H1993 | 0.689 | 0.63 | 0.666 | 0.694 | 0.691 | 0.516 | 0.457 | 0.482 | 0.508 | 0.547 | 0.429 | 0.488 | 0.438 | 0.377 | 0.508 | 0.584 | 0.364 | 0.499 | 0.529 | 0.558
4 | NCI-H2009 | 0.875 | 0.897 | 0.901 | 0.887 | 0.795 | 0.986 | 0.98 | 0.927 | 0.848 | 0.771 | 0.563 | 0.611 | 0.54 | 0.54 | 0.503 | 0.601 | 0.456 | 0.364 | 0.492 | 0.446
5 | NCI-H2023 | 0.301 | 0.323 | 0.303 | 0.282 | 0.219 | 0.18 | 0.174 | 0.201 | 0.19 | 0.142 | 0.496 | 0.441 | 0.341 | 0.372 | 0.379 | 0.276 | 0.294 | 0.253 | 0.256 | 0.296
6 | NCI-H2085 | 0.735 | 0.522 | 0.519 | 0.509 | 0.484 | 0.655 | 0.652 | 0.493 | 0.624 | 0.63 | 0.636 | 0.582 | 0.497 | 0.576 | 0.541 | 0.704 | 0.75 | 0.698 | 0.705 | 0.583
7 | NCI-H2087 | 0.821 | 1.09 | 0.765 | 0.788 | 0.674 | 0.587 | 0.636 | 0.612 | 0.608 | 0.626 | 0.321 | 0.5 | 0.443 | 0.46 | 0.532 | 0.491 | 0.444 | 0.524 | 0.465 | 0.508
8 | NCI-H2126 | 0.463 | 0.448 | 0.393 | 0.425 | 0.457 | 0.531 | 0.522 | 0.497 | 0.561 | 0.535 | 0.546 | 0.482 | 0.407 | 0.553 | 0.497 | 0.714 | 0.583 | 0.502 | 0.602 | 0.603
9 | NCI-H2228 | 0.272 | 0.351 | 0.552 | 0.249 | 0.364 | 0.252 | 0.313 | 0.312 | 0.285 | 0.243 | 0.536 | 0.342 | 0.458 | 0.436 | 0.336 | 0.658 | 0.289 | 0.336 | 0.266 | 0.311
10 | NCI-H2347 | 0.912 | 0.911 | 0.581 | 0.798 | 0.769 | 0.406 | 0.442 | 0.486 | 0.412 | 0.434 | 0.565 | 0.556 | 0.455 | 0.419 | 0.551 | 0.565 | 0.54 | 0.527 | 0.525 | 0.505
11 | NCI-H2405 | 0.515 | 0.49 | 0.463 | 0.536 | 0.536 | 0.796 | 0.825 | 0.671 | 0.726 | 0.825 | 0.696 | 0.679 | 0.652 | 0.606 | 0.75 | 0.757 | 0.745 | 0.681 | 0.713 | 0.686
12 | NCI-H3122 | 0.791 | 0.822 | 0.621 | 0.528 | 0.761 | 0.198 | 0.232 | 0.228 | 0.208 | 0.201 | 0.678 | 0.598 | 0.607 | 0.369 | 0.669 | 0.638 | 0.643 | 0.497 | 0.476 | 0.579
13 | PC-3 [JPC-3] | 0.869 | 0.914 | 0.785 | 0.834 | 0.866 | 0.988 | 0.9 | 0.72 | – | 1.07 | 0.693 | 0.498 | 0.54 | – | 0.566 | 1.07 | 1.21 | 1.1 | – | 1.05
14 | PC-14 | 0.937 | 1 | 0.945 | 0.82 | 0.724 | 0.176 | 0.186 | 0.181 | 0.184 | 0.184 | 0.379 | 0.576 | 0.486 | 0.528 | 0.421 | 0.46 | 0.434 | 0.298 | 0.343 | 0.411
15 | RERF-LC-KJ | 0.86 | 0.679 | 0.609 | 0.531 | 0.571 | 0.468 | 0.489 | 0.498 | 0.426 | 0.457 | 0.552 | 0.461 | 0.446 | 0.478 | 0.49 | 0.666 | 0.61 | 0.593 | 0.605 | 0.606
